Laboratory results reported in a melting point compilation (Tetko et al.; mined from patent text by program, amines drawn as free bases though some values may be those of a salt).

Row | Structure (SMILES) | melting point [°C]
1 | Nc1ncnc2c1c(-c1cn[nH]c1)nn2Cc1oc2ccccc2c(=O)c1-c1ccccc1 | 235 to 237
2 | O=C(NCCN1CCN(c2ncccn2)CC1)NC12CC3CC(CC(C3)C1)C2 | 170 to 171
3 | C(=C(c1ccccc1)N(c1ccccc1)c1ccccc1)c1cccc2ccccc12 | 170 to 172
4 | Cc1cn(C2(C(=O)N(C)C)CCC2)nc1-c1ccccc1 | 87 to 89
5 | N#CCCNC(=O)c1cccc(-c2ccc3c(c2)N(c2ccc(Cl)cc2Cl)CCCC3)c1 | 139 to 142
6 | COc1ccc2c(c1OC)CCN(Cc1ccc(-c3ccc(-c4cccc(N)n4)cc3)cc1)C2 | 205 to 209
7 | O=S1(=O)CCN2CCN[C@H](c3ccc(Oc4ccccc4)cc3)C2=N1 | 124 to 125
8 | O=c1occc2ccc(Oc3ccc(Cl)cc3)cc12 | 76.5 to 77
9 | O=C1CCC(c2nc(-c3ccccc3)c(-c3ccccc3)o2)N1 (stereo unspecified) | 145 to 147
10 | Cc1cc(Oc2ncc(C(F)(F)F)cc2Cl)nn1C(=O)N(C(C)C)C(C)C | 58 to 60
11 | O=C(O)c1ccc(OCCN2CCOCC2)cc1 | 112 to 114
12 | COc1cccc(CN(Cc2cccc(OC)c2)c2ccc(-c3ccccc3)cc2)c1 | 98 to 98.5
13 | COc1ncc(CC2SC(N3CCOCC3)=NC2=O)cc1-c1ccc(O)c(C23CC4CC(CC(C4)C2)C3)c1 (stereo unspecified) | 175 to 177
14 | CC(C)(C)c1cc(N2CCCC2=O)cc(C(C)(C)C)c1O | 173 to 175
15 | Cc1c2n(c3ccccc13)C(=O)C(Cc1cccnc1)CC2 (stereo unspecified) | 158 to 160
16 | COc1ccc2c(n1)c(C=C[N+](=O)[O-])c1n2CCCO1 | 248 to 249
17 | O=C1CCCC(c2ccccc2)N1c1ccccc1 (stereo unspecified) | 123 to 125
18 | CS(=O)(=O)Nc1ccc2c(c1)CCC1(CCC(N3CCc4ccccc4C3)CC1)O2 (stereo unspecified) | 183 to 185
19 | O[C@H]1c2cc(OCc3ccc4ccccc4c3)ccc2OC[C@H]1Oc1cccnc1 (relative stereo) | 156 to 157

Row | Structure (SMILES) | melting point [°C]
20 | Cc1cccc(Cl)c1C1N=C(N(C)C)Cc2ccccc21 (stereo unspecified) | 153 to 154
21 | CC(C)(C)OC(=O)C(Cc1c[nH]cn1)N(C(=O)OC(C)(C)C)C(=O)OC(C)(C)C (stereo unspecified) | 98
22 | N#Cc1ccc(-c2cccc(C=O)c2O)cc1 | 120 to 121
23 | CC(C)(C)c1ccc(CC[C@@H](N)[C@H](O)c2ccc(F)cc2)cc1 (racemic) | 139 to 140
24 | O=C1c2ccccc2OCN1CCO | 59 to 61
25 | CC(Oc1ccc([N+](=O)[O-])cc1[N+](=O)[O-])C(=O)O (stereo unspecified) | 167 to 171
26 | Fc1cnc(Nc2nc3c(s2)CCN(CCCN2CCOCC2)c2n[nH]cc2-3)nc1 | 251 to 254
27 | CC(=O)N1CCCC(C2=C(C#N)C(c3cccc4nonc34)c3c[nH]nc3N2)C1 (stereo unspecified) | 219
28 | N#Cc1ccc(C2CC(n3ccnc3)c3ccccc3N2)cc1 (stereo unspecified) | 166 to 168
29 | CC(C)(C)OC(=O)N[C@@H](Cc1ccccc1)C(=O)CCl | 101 to 102
30 | COC(=O)c1cc(N(C)C)c(N2CCCCC2)c(N(C)C)c1 | 103 to 105
31 | CCN(C(=O)SC(C)(C)C)c1cn(-c2cccnc2)nc1Cl | 91 to 93
32 | COC(=O)c1c(Br)c(Br)c(C(=O)OC)c(Br)c1Br | 207 to 210
33 | Oc1cccc(C=C2c3ccc(Cl)cc3CCc3cccnc32)c1 | 221
34 | O=c1oc2c(O)cccc2c(O)c1-c1ccccc1 | 220
35 | CCCCCCNC(=O)c1cnc(OCC(O)CNC(C)C)nc1 (stereo unspecified) | 114 to 115
36 | O=c1[nH]c(=Cc2ccc(OCc3ccccc3)cn2)c(=O)[nH]c1=Cc1ccc(Cl)c(Cl)c1 | 264 to 265
37 | CC(C)CCCC(C)C1CCC2C3CC=C4CC(OC(=O)OCC(N)C(=O)O)CCC4(C)C3CCC12C (stereo unspecified) | 147
38 | Cc1cc(=O)c(C(=O)O)c(C)o1 | 98

Row | Structure (SMILES) | melting point [°C]
39 | O=C1NCCCN1C1CCN(Cc2ccccc2)CC1 | 178 to 180
40 | NC1=NC2(O)c3cc([N+](=O)[O-])ccc3CC2S1 (stereo unspecified) | > 250
41 | CCCCCCCCCCCCOS(=O)(=O)NC(=O)Nc1c(C(C)C)cccc1C(C)C | 112 to 115
42 | Cc1[nH]c(=O)[nH]c(=O)c1[N+](=O)[O-] | 281
43 | COc1cc2c(cc1Br)C(C)(C)CCC2(C)C | 77 to 78
44 | Cc1ccc(-c2cn3cc(-c4cccc(COc5ccc(Cl)cc5)c4)ccc3n2)cc1 | 182 to 184
45 | Cc1cnc2n1N=C(c1ccc(F)cc1)c1cc3c(cc1C2)OCO3 | 190
46 | CC(C)(C)c1cc(C=O)c(O)cc1Cl | 38 to 39
47 | CC(C)(CCCCCCCCC(C)(C)NC(=O)Cc1cc(C(C)(C)C)c(O)c(C(C)(C)C)c1)NC(=O)Cc1cc(C(C)(C)C)c(O)c(C(C)(C)C)c1 | 168
48 | COc1ccc(N2C(=O)C(O[Si](C(C)C)(C(C)C)C(C)C)C2c2ccc(F)cc2)cc1 (stereo unspecified) | 121 to 122
49 | O=C1C(c2c[nH]c3ccccc23)=C(c2c[nH]c3ccccc23)C(=O)N1c1ccccc1 | > 290
50 | O=c1c([N+](=O)[O-])c[nH]n1-c1c(Cl)cc(C(F)(F)F)cc1Cl | 100 to 108
51 | O=C1c2ccccc2NC(c2ccc(=O)[nH]c2)N1c1ccc(F)c(C(F)(F)F)c1 (stereo unspecified) | 260 to 261
52 | COc1nccnc1OCC(O)CN1CCC(N2CCN(c3ccccc3)C2=O)CC1 (stereo unspecified) | 128 to 129
53 | N#CC1(Cc2nnn[nH]2)C2CCCC1CCC2 (stereo unspecified) | 189 to 191
54 | COc1ccc(C2=Cc3ccc(OCc4ccccc4)cc3OC2O)cc1 (stereo unspecified) | 138 to 139
55 | O=C(O)Cc1c(C(=O)C2CCCCC2)[nH]c2cc(Cl)ccc12 | 206 to 209
56 | CCCCc1nc(Cl)c(CO)n1Cc1ccc(-c2ccccc2-c2nc(=O)o[nH]2)cc1 | 202 to 205
57 | NC(=O)c1ccc(OCCCCl)cc1 | 142 to 143

Next, values leading:

Row | melting point [°C] | Structure (SMILES)
58 | 237 to 238 | COc1ccnc(CCc2nc3cc(-c4ccncc4)cnc3[nH]2)c1
59 | 165 | Cc1c(C(=O)Nc2ccc(SCCCO)c(C#N)c2)cnn1-c1ccc(Cl)cc1
60 | > 280 | CNC(=O)c1cc2c(Oc3ccc(C4=NCCN4)cc3)cncc2s1
61 | 103 to 104 | Cc1ccccc1-c1nc(Cl)c2ccccc2n1
62 | 116 to 118 | CN(C)C=C1C(=O)N(c2cccc(Cl)c2)c2ccccc21
63 | 168 to 170 | CS(=O)(=O)c1ccc(Oc2ccc(Cl)c(Cl)c2)nc1C#N
64 | 163 to 165 | C#CCON=C(C(C)=NOCc1ccccc1C(=COC)C(=O)OC)c1ccccc1
65 | 195 | COc1ccc2ccccc2c1C(Nc1ccccc1C)C(N)=O (stereo unspecified)
66 | 95 to 96 | Cc1cc(C(=O)OC(CC(C)C)C(=O)O)cc(C)n1 (racemic)
67 | 174 | COC(=O)c1ccccc1S(=O)(=O)Nn1c(C)nn(-c2nc(OC)cc(OC)n2)c1=O
68 | 193 to 195 | COc1ccc(OC)c(S(=O)(=O)Nc2ccccc2/C=C/c2ccncc2)c1
69 | 140 to 141 | CCCCOCCOc1ccc(-c2ccc(N3CCC(C(=O)OC)C3)c(C=C(C)C(=O)O)c2)cc1 (stereo unspecified)
70 | 34 to 36 | CCOc1ccc2c(c1)C(=O)CCC2
71 | 110 to 113 | CS(=O)(=O)Nc1ccc(F)c(C(=O)CBr)c1
72 | > 220 | C(=Cc1cnc2[nH]c3ccccc3c2c1)c1ccccc1
73 | 165 to 168 | CNC(=O)c1nc(-c2ccccc2)c(-c2ccc(=O)n(C(C)C)n2)s1
74 | 94 | CN(C)CCCNC(=O)c1ccc(-c2cnc3c(c2)N(C(=O)c2ccccc2)CCN3)cc1
75 | 76 to 78 | CC(=O)Oc1cc2c(c3ccccc13)N(C(=O)OC(C)OC(C)=O)c1ccccc1S2 (stereo unspecified)
76 | 115 | COC(=O)CCCc1cc2nc(Cl)ccc2n1S(=O)(=O)c1ccccc1OC
77 | 150 to 155 | CS(=O)(=O)c1ccc(-n2nc(CNC(=O)NC34CC5CC(CC(C5)C3)C4)cc2-c2ccccc2)cc1
78 | 172 to 173 | CN(c1cccc2cc(C3=NCC(C)(CN4CCC5(CC4)OCCO5)S3)[nH]c12)S(=O)(=O)c1cccs1 (stereo unspecified)
79 | 90 to 104 | CN(C)NC(=O)c1cc(S(C)(=O)=O)c(Cl)cc1NCc1ccco1

Row | melting point [°C] | Structure (SMILES)
80 | 118 to 120 | COc1ccc(Cl)cc1C(=O)NCCc1ccc(CCC(=O)O)cc1
81 | 72 to 73 | CCC1(c2ccc3cc(OC)ccc3c2)OC(C(=O)OC)C(C(=O)OC)O1 (stereo unspecified)
82 | 159 to 160 | Cn1nnnc1CC(=O)c1ccc(Br)cc1N
83 | 147 to 150 | COc1cc(C2=NNC(=O)Cc3cc4c(cc32)OCO4)ccc1N
84 | 168 to 169 | CCOC(=O)c1cc2cc(C)cc(NS(=O)(=O)c3cccs3)c2[nH]1
85 | > 310 | Cc1nccc2[nH]c(=O)c(C(=O)NN)cc12
86 | 167 to 170 | Cc1cc(N(C)C)c2c(N)c(C(N)=O)sc2n1
87 | 182 to 185 | Cc1n[nH]c(C)c1Oc1cc(C#N)cc(C#N)c1
88 | 131 | C=CCN1CCN(c2ncc3c(=O)c(C(=O)OCC)cn(CC)c3n2)CC1
89 | 199 to 201 | Cc1cc(Cl)cc2c(=O)oc(-c3cc(Cl)nn3-c3ncccc3Cl)nc12
90 | 154 to 156 | COC(=O)C1=C(C(F)F)NC(C)=C(C(=O)OC2CCCC2)C1c1cccc([N+](=O)[O-])c1C (stereo unspecified)
91 | 316 to 318 | Oc1cc(-c2ccc(F)cc2)nc2ccsc12
92 | 136 to 138 | CCCCCCCCCCCCCCCCNc1ccc(C(=O)NS(=O)(=O)c2ccccc2)cc1
93 | 103 to 106 | CCOC(=O)C1=C(O)c2ccccc2N(c2ccccc2)C1
94 | 203 to 204 | O=C(CCl)c1ccc2c(c1)[nH]c1ccccc12
95 | 214 to 218 | NS(=O)(=O)c1ccc(-n2nc(C(F)F)cc2-c2ccc3c(c2)OCO3)cc1
96 | 109 to 110 | COCc1cc2c(s1)CCCc1cc(=O)n(-c3ccc(C)cc3)nc1-2
97 | 143 to 146 | COc1ccc2c(=O)c(N)coc2c1
98 | 65 to 67 | CCCC[C@H](NC(=O)[C@H](CC(C)C)NC(=O)OCc1ccccc1)C(=O)CCCc1cccs1
99 | 242 to 243 | Cc1nnc(-c2ccc3occ(C(=O)NCCC(N)=O)c3c2)o1
100 | 102 to 103 | CN(C)S(=O)(=O)CS(=O)(=O)c1ccccc1
101 | 73 to 75 | COC(=O)Cc1ccccc1N(Cc1ccc(Cl)cc1)S(C)(=O)=O
